Measured values taken from patent US10294229B2, “Heteroaryl substituted aminopyridine compounds” (BRISTOL-MYERS SQUIBB COMPANY, priority 2015, dated 2019).

Legend:
[1] = system: Human whole blood stimulated with a TLR2 agonist (lipoteichoic acid), IL-6 levels; experiment: IRAK4 Whole Blood Assay; assay type: cell-based; settings: lipoteichoic acid 10 μg/mL
How it was run: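 ACD-A-anticoagulated human whole blood was preincubated with compounds for 60 min at 37 °C under 5% CO2. It was then stimulated with 10 μg/mL lipoteichoic acid (final) in RPMI for 5 h. IL-6 in plasma supernatants was measured by flow cytometry bead assay.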

IRAK4 = IRAK4 (Homo sapiens (Human), UniProt Q9NWZ3); experiment: IRAK4 Inhibition Assay; assay type: biochemical; settings: ATP 500 μM; IRAK4 0.6 nM
Chain of IRAK4 (Q9NWZ3 whole entry, species assumed): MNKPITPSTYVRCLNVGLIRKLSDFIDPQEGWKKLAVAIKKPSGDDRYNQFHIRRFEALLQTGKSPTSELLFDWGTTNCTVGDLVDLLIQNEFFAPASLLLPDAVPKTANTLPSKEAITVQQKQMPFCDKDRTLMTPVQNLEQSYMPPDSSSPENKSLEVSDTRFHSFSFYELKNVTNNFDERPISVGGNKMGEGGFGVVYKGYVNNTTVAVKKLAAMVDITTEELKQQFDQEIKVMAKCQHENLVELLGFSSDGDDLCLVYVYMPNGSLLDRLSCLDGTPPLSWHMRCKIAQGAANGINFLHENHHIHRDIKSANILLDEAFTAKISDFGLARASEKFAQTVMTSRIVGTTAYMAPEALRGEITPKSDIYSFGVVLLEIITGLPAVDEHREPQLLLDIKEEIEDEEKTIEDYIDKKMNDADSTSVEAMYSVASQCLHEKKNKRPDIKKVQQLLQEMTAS
How it was run: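 Enzyme 0.6 nM, ATP 500 μM, FL-peptide 1.5 μM, DMSO 1.6%; HEPES pH 7.2/MgCl2/Brij 35/DTT buffer. RT, 60 min, EDTA stop. Mobility-shift product/substrate ratio; % inhib vs no-enzyme and vehicle controls.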

Row | EC50 ([1]; Homo sapiens) [nM] | IC50 (IRAK4) [nM] | EC50 [1] [nM] | Compound
1 | 1090 | 4 |  | CC(C)Nc1cc(-n2ncc3cc(C#N)cnc32)ncc1-c1cn(C2CN(C(=O)CC3CC3)C2)nn1 [Example 139, 1-(5-(1-(1-(2-cyclopropylacetyl)azetidin-3-yl)-1H-1,2,3-triazol-4-yl)-4-(isopropylamino)pyridin-2-yl)-1H-pyrazolo[3,4-b]pyridine-5-carbonitrile]
2 | 1080 | 12 |  | CC(C)Nc1cc(-n2ncc3cc(C#N)cnc32)ncc1-c1cn(CC(O)CO)nn1 (centres unmarked) [Example 131, 1-(5-(1-(2,3-dihydroxypropyl)-1H-1,2,3-triazol-4-yl)-4-(isopropylamino)pyridin-2-yl)-1H-pyrazolo[3,4-b]pyridine-5-carbonitrile]
3 | 870 | 3 |  | CC(C)Nc1cc(-n2ncc3cc(C#N)cnc32)ncc1-c1cn(CCCCCN)nn1 [Example 114, 1-(5-(1-(5-aminopentyl)-1H-1,2,3-triazol-4-yl)-4-(isopropylamino)pyridin-2-yl)-1H-pyrazolo[3,4-b]pyridine-5-carbonitrile]
4 | 2050 | 9 |  | CC(C)Nc1cc(-n2ncc3cc(C#N)cnc32)ncc1-n1cc(CS(=O)(=O)c2ccccc2)nn1 [Example 332, 1-(4-(isopropylamino)-5-(4-((phenylsulfonyl)methyl)-1H-1,2,3-triazol-1-yl)pyridin-2-yl)-1H-pyrazolo[3,4-b]pyridine-5-carbonitrile]
5 |  | 4 | 490 | CC(C)Nc1cc(-n2ncc3cc(C#N)cnc32)ncc1-c1cn(C2CCN(C)C2=O)nn1 (centres unmarked) [Example 22, 1-(4-(isopropylamino)-5-(1-(1-methyl-2-oxopyrrolidin-3-yl)-1H-1,2,3-triazol-4-yl)pyridin-2-yl)-1H-pyrazolo[3,4-b]pyridine-5-carbonitrile]
6 | 1180 | 16 |  | CCC(O)Cc1cn(-c2cnc(-n3ncc4cc(C#N)cnc43)cc2NC(C)C)nn1 (centres unmarked) [Example 303, 1-(5-(4-(2-hydroxybutyl)-1H-1,2,3-triazol-1-yl)-4-(isopropylamino)pyridin-2-yl)-1H-pyrazolo[3,4-b]pyridine-5-carbonitrile]
7 | 490 | 14 |  | CC(C)Nc1cc(-n2ncc3cc(C#N)c(N)nc32)ncc1-c1cn(CCCF)nn1 [Example 46, 6-amino-1-(5-(1-(3-fluoropropyl)-1H-1,2,3-triazol-4-yl)-4-(isopropylamino)pyridin-2-yl)-1H-pyrazolo[3,4-b]pyridine-5-carbonitrile]
8 | 440 | 7 |  | CC(C)(O)CCc1cn(-c2cnc(-n3ncc4cc(C#N)cnc43)cc2NCCC(F)(F)F)nn1 [Example 362, 1-(5-(4-(3-hydroxy-3-methylbutyl)-1H-1,2,3-triazol-1-yl)-4-((3,3,3-trifluoropropyl)amino)pyridin-2-yl)-1H-pyrazolo[3,4-b]pyridine-5-carbonitrile]
9 |  | 11 | 430 | CC(F)Cc1cn(-c2cnc(-n3ncc4cc(C#N)cnc43)cc2NC2CC2)nn1 (centres unmarked) [Example 353, 1-(4-(cyclopropylamino)-5-(4-(2-fluoropropyl)-1H-1,2,3-triazol-1-yl)pyridin-2-yl)-1H-pyrazolo[3,4-b]pyridine-5-carbonitrile]
10 | 520 | 14 |  | CC(C)Nc1cc(-n2ncc3cc(C#N)cnc32)ncc1-n1cc(C2CCCC2)nn1 [Example 266, 1-(5-(4-cyclopentyl-1H-1,2,3-triazol-1-yl)-4-(isopropylamino)pyridin-2-yl)-1H-pyrazolo[3,4-b]pyridine-5-carbonitrile]
11 | 730 | 2 |  | CCN1CC(n2cc(-c3cnc(-n4ncc5cc(C#N)cnc54)cc3NC(C)C)nn2)C1 [Example 149, 1-(5-(1-(1-ethylazetidin-3-yl)-1H-1,2,3-triazol-4-yl)-4-(isopropylamino)pyridin-2-yl)-1H-pyrazolo[3,4-b]pyridine-5-carbonitrile]
12 | 1610 | 2 |  | CC(C)Nc1cc(-n2ncc3cc(C#N)cnc32)ncc1-c1cn(C2CN(C)C2)nn1 [Example 151, 1-(4-(isopropylamino)-5-(1-(1-methylazetidin-3-yl)-1H-1,2,3-triazol-4-yl)pyridin-2-yl)-1H-pyrazolo[3,4-b]pyridine-5-carbonitrile, 2TFA]
13 | 600 | 8 |  | CC(C)Nc1cc(-n2ncc3cc(C#N)cnc32)ncc1-c1cn(C)nn1 [Example 164, 1-(4-(isopropylamino)-5-(1-methyl-1H-1,2,3-triazol-4-yl)pyridin-2-yl)-1H-pyrazolo[3,4-b]pyridine-5-carbonitrile]
14 |  | 6 | 710 | CC(C)Nc1cc(-n2ncc3cc(C#N)cnc32)ncc1-c1cn([C@@H]2CCN(S(C)(=O)=O)C[C@H]2O)nn1 (single isomer, unassigned) [Example 204]
15 | 610 | 3 |  | CC(C)Nc1cc(-n2cnc3cc(C#N)cnc32)ncc1-c1cn(CCc2ccccc2)nn1 [Example 57, 3-(4-(isopropylamino)-5-(1-phenethyl-1H-1,2,3-triazol-4-yl)pyridin-2-yl)-3H-imidazo[4,5-b]pyridine-6-carbonitrile]
16 | 460 | 5 |  | CC(C)Nc1cc(-n2ncc3cc(C#N)cnc32)ncc1-c1cc(C2CNC2)no1 [Example 397, 1-(5-(3-(azetidin-3-yl)isoxazol-5-yl)-4-(isopropylamino)pyridin-2-yl)-1H-pyrazolo[3,4-b]pyridine-5-carbonitrile]

Further lines, the compound ahead of its results:

Row | Compound | EC50 ([1]; Homo sapiens) [nM] | IC50 (IRAK4) [nM] | EC50 [1] [nM]
17 | COC(=O)NCCc1cn(-c2cnc(-n3ncc4cc(C#N)cnc43)cc2NC(C)C)nn1 [Example 352, methyl (2-(1-(6-(5-cyano-1H-pyrazolo[3,4-b]pyridin-1-yl)-4-(isopropylamino)pyridin-3-yl)-1H-1,2,3-triazol-4-yl)ethyl)carbamate] | 460 | 20 | 
18 | CC(=O)N1CC(Cn2cnc(-c3cnc(-n4ncc5cc(C#N)cnc54)cc3NC(C)C)c2)C1 [Example 234, 1-(5-(1-((1-acetylazetidin-3-yl)methyl)-1H-imidazol-4-yl)-4-(isopropylamino)pyridin-2-yl)-1H-pyrazolo[3,4-b]pyridine-5-carbonitrile] | 440 | 16 | 
19 | CC(C)Nc1cc(-n2ncc3cc(C#N)cnc32)ncc1-n1cc(C2CCC(NC(=O)OC(C)(C)C)CC2)nn1 (centres unmarked) [Example 342, tert-butyl ((1s,4s)-4-(1-(6-(5-cyano-1H-pyrazolo [3,4-b]pyridin-1-yl)-4-(isopropylamino)pyridin-3-yl)-1H-1,2,3-triazol-4-yl)cyclohexyl) carbamate] | 1120 | 2 | 
20 | CC(C)Nc1cc(-n2ncc3cc(C#N)cnc32)ncc1C1=NOC(CCC(C)(C)O)C1 (centres unmarked) [Example 437, 1-(5-(5-(3-hydroxy-3-methylbutyl)-4,5-dihydroisoxazol-3-yl)-4-(isopropylamino)pyridin-2-yl)-1H-pyrazolo[3,4-b]pyridine-5-carbonitrile] | 210 | 2 | 
21 | CC(C)Nc1cc(-n2ncc3cc(C#N)cnc32)ncc1-c1cn([C@H]2CCN(S(C)(=O)=O)C[C@H]2OS(C)(=O)=O)nn1 [Example 182, (3R,4S)-4-(4-(6-(5-cyano-1H-pyrazolo[3,4-b]pyridin-1-yl)-4-(isopropylamino)pyridin-3-yl)-1H-1,2,3-triazol-1-yl)-1-(methylsulfonyl)piperidin-3-yl methanesulfonate] | 750 | 5 | 
22 | CC(C)Nc1cc(-n2ncc3cc(C#N)cnc32)ncc1-c1cn([C@@H](C)[C@H](C)O)nn1 (single isomer, unassigned) [Example 91] |  | 5 | 1920
23 | CC(C)(O)CCC1CC(c2cnc(-n3ncc4cc(C#N)cnc43)cc2NCC(F)F)=NO1 (centres unmarked) [Example 442, 1-(4-((2,2-difluoroethyl)amino)-5-(5-(3-hydroxy-3-methylbutyl)-4,5-dihydroisoxazol-3-yl)pyridin-2-yl)-1H-pyrazolo[3,4-b]pyridine-5-carbonitrile] | 410 | 4 | 
24 | CC(C)Cc1cn(-c2cnc(-n3ncc4cc(C#N)cnc43)cc2NC(C)C)nn1 [Example 305, 1-(5-(4-isobutyl-1H-1,2,3-triazol-1-yl)-4-(isopropylamino)pyridin-2-yl)-1H-pyrazolo[3,4-b]pyridine-5-carbonitrile] | 550 | 10 | 
25 | COC(=O)NC1CCC(c2cn(-c3cnc(-n4ncc5cc(C#N)cnc54)cc3NC(C)C)nn2)CC1 (centres unmarked) [Example 344, methyl ((1s,4s)-4-(1-(6-(5-cyano-1H-pyrazolo[3,4-b]pyridin-1-yl)-4-(isopropylamino)pyridin-3-yl)-1H-1,2,3-triazol-4-yl)cyclohexyl)carbamate] | 650 | 3 | 
26 | CC(=O)N1CCC(c2cn(-c3cnc(-n4ncc5cc(C#N)cnc54)cc3NC(C)C)nn2)CC1 [Example 335, 1-(5-(4-(1-acetylpiperidin-4-yl)-1H-1,2,3-triazol-1-yl)-4-(isopropylamino)pyridin-2-yl)-1H-pyrazolo[3,4-b]pyridine-5-carbonitrile] | 630 | 6 | 
27 | CC(C)Nc1cc(-n2ncc3cnc(N)nc32)ncc1-n1cc(CCC(C)(C)O)nn1 [Example 380, 4-(1-(6-(6-amino-1H-pyrazolo[3,4-d]pyrimidin-1-yl)-4-(isopropylamino)pyridin-3-yl)-1H-1,2,3-triazol-4-yl)-2-methylbutan-2-ol] |  | 6 | 460
28 | CC(C)Nc1cc(-n2ncc3cc(C#N)cnc32)ncc1-c1cn(CC2COC2)cn1 [Example 236, 1-(4-(isopropylamino)-5-(1-(oxetan-3-ylmethyl)-1H-imidazol-4-yl)pyridin-2-yl)-1H-pyrazolo[3,4-b]pyridine-5-carbonitrile] | 990 | 11 | 
